From US12583870B2, “Azaheteroaryl compound and application thereof” (SHANGHAI BLUERAY BIOPHARMA CO., LTD., priority 2019, dated 2026)

Experiments:
KARPAS-422 cells = assay: Cell proliferation analysis, KARPAS-422, 13 days, CellTiter-Glo; type: cell-based; details: Homo sapiens, 312 h
Method: Human B-cell non-Hodgkin lymphoma cells, KARPAS-422 S, were cultured in a culture flask using standard cell culture conditions. The medium contained 15% fetal bovine serum (FBS, Invitrogen, product number 10099-141) and 1% penicillin/streptomycin solution (P/S) RPMI-1640 (Invitrogen, product number 11875), and the culture flask was placed and cultured in a sterile incubator at the temperature of 37° C. and […] with a relative humidity of […] To detect the effect of PRC2 inhibitors on cell proliferation, cells in exponential growth phase were taken and seeded into a 96-well plate (Corning, product number 3904) at a density of 1×10^4 cells/well, and 100 μL of the medium was added into each well. Subsequently, the compounds at different concentrations disclosed in the present disclosure were added into the wells where cells had already been seeded (9 concentration gradients were provided for each compound, with the highest detection concentration at 10 μM, 3-fold gradient dilution) and two replicates in parallel were provided for each treatment concentration. DMSO was at a final concentration of 0.5%. Afterwards, viable cell numbers were determined using Vi-CELL (Beckman Coulter) every 3-4 days. Cells counted were seeded into a new 96-well plate at the same density (1×10^4 cells/well) each time. The wells were supplemented with a fresh medium to 100 μL and at the same time, compounds at different concentrations were added. The cells were cultured to day 13. 100 μL of CellTiter-Glo (CellTiter-GloCellTiter-GloCellTiter-GloCTG) (Promega, product number G7573) was added into each well. The plate was placed in the dark at room temperature for 10-20 minutes and the luminescence signal was read using SpectraMax i3× (Molecular Devices).

[1] = tested on: trimethylation level of histone H3K27 in G401 cells; assay: ELISA (H3K27 trimethylation) analysis in G401 cells; type: cell-based; details: Homo sapiens, G-401, 72 hours, H3K27me3 standardized to H3
Method: 3-fold series dilution with DMSO was carried out on the representative compounds of the present disclosure; and 10 concentration gradients were detected for each compound, with the highest detection concentration of 10 μM. The compounds were diluted 200-fold into the G401 cells cultured in a 96-well plate (DMSO at a final concentration of 0.5%). After the cells, administered with the compound, were cultured for 72 hours, the trimethylation level of the histone H3K27 was detected using the ELISA method.
Extraction of the histone: in a 96-well plate, the compound-treated cells were washed three times with 1×PBS (10×PBS buffer (80 g NaCl (Sigma, product number S3014), 2 g KCl (Sigma, product number 60128), 14.4 g Na2HPO4 (Sigma, product number S5136), and 2.4 g KH2PO4 (Sigma, product number P9791) in 1 L of water, adjusting the pH to 7.4)). 100 μL of 0.4 N HCl was added into each well. The plate was placed at 4° C. and gently agitated for 2 hours to lyse the cells. The cell lysate was then neutralized with 80 μL of neutralization buffer (0.5 M disodium hydrogen phosphate, pH 12.5, 2.5 mM DTT; 1% cocktail (Sigma, product number P8340)) (the cell lysate and the neutralization buffer were thoroughly mixed to uniformity).
ELISA detection method: the cell lysate was transferred in parallel to two 384-well detection plates (PerkinElmer, OptiPlate-384HB, product number 6007290), wherein one of the plates was used to detect the H3K27 trimethylation level and the other plate was used to determine the level of H3. PBS was used to adjust the final volume to 50 μL/well. The plates were coated at 4° C. overnight. On the following day, the solution inside the wells was discarded and the plates were washed 5 times with TBST buffer (1×TBS (10×TBS: 24.2 g Tris (Sigma, product number T6066), 80 g NaCl (Sigma, product number S3014) in 1 L of water, adjusting the pH with HCl to 7.6), 0.1% Tween-20) and dried on an absorbent paper by inversion. 70 μL of blocking buffer (TBST, 5% BSA) was added into the coated reaction wells and the plates were incubated at room temperature for 1 hour. The blocking buffer was discarded and primary antibodies were added (30 μL/well). The desired primary antibodies were all diluted with a blocking buffer and the dilution factor was as follows: anti-H3K27me3 antibody (Cell Signaling Technology, product number 9733), 1:2000 dilution; anti-H3 antibody (Cell Signaling Technology, product number 4499), 1:10000 dilution. After the primary antibodies were added, the plates were placed at room temperature and incubated for 1 hour. After the plates were washed with TBST 5 times, the plates were dried by inversion. A secondary antibody (30 μL/well) was added to each of the reaction wells and the plates were incubated at room temperature for 1 hour. The secondary antibody (anti-rabbit antibody (Jackson ImmunoResearch, product number 111-035-003)) was diluted 2000-fold with a blocking buffer before use. After 1 hour, the plates were washed with TBST and dried by inversion. 30 μL of ECL substrate (Pierce, product number 34080) was added into each well and centrifuged at 2000 rpm for 30 seconds. The signal of each sample was detected using SpectraMax (Molecular Devices). Data processing: H3K27 methylation readings were first standardlized using H3 signals and 0.5% DMSO-treated samples was used as the control to calculate the inhibition percentage of the compounds. Data were fit to obtain Dose-Response curves using the GraphPad prism 5 program and the IC50 values of the test compounds were obtained.

SMILES	IC50 (KARPAS-422 cells)	IC50 [1]
COc1cc(-c2cnc(NCc3c(F)ccc4c3CCO4)n3cnnc23)c2ncnn2c1 [N-((5-fluoro-2,3-dihydrobenzofuran-4-yl)methyl)-8-(6-methoxy-[1,2,4]triazolo[1,5-a]pyridin-8-yl)-[1,2,4]triazolo[4,3-c]pyrimidin-5-amine]	0.0017 µM	0.0012 µM
CN(C)C(=O)c1cnc2c(-c3cnc(NCc4c(F)ccc5c4CCO5)n4cnnc34)cc(F)cn12 [6-fluoro-8-(5-(((5-fluoro-2,3-dihydrobenzofuran-4-yl)methyl)amino)-[1,2,4]triazolo[4,3-c]pyrimidin-8-yl)-N,N-dimethylimidazo[1,2-a]pyridine-3-carboxamide]	0.0024 µM	0.0047 µM
Cc1ncc(-c2cnc(NCc3c(F)ccc4c3CCO4)n3cnnc23)c2ncnn12 [N-((5-fluoro-2,3-dihydrobenzofuran-4-yl)methyl)-8-(5-methyl-[1,2,4]triazolo[1,5-c]pyrimidin-8-yl)-[1,2,4]triazolo[4,3-c]pyrimidin-5-amine]	0.0025 µM	0.0045 µM
Fc1ccc2c(c1CNc1ncc(-c3ccc(N4CCC(N5CCOCC5)CC4)n4ncnc34)c3nncn13)CCO2 [N-((5-fluoro-2,3-dihydrobenzofuran-4-yl)methyl)-8-(5-(4-morpholinopiperidin-1-yl)-[1,2,4]triazolo[1,5-a]pyridin-8-yl)-[1,2,4]triazolo[4,3-c]pyrimidin-5-amine]	0.0008 µM	0.0011 µM
Fc1ccc2c(c1CNc1ncc(-c3ccc(CN4CCOCC4)n4ncnc34)c3nncn13)CCO2 [N-((5-fluoro-2,3-dihydrobenzofuran-4-yl)methyl)-8-(5-(morpholinomethyl)-[1,2,4]triazolo[1,5-a]pyridin-8-yl)-[1,2,4]triazolo[4,3-c]pyrimidin-5-amine]	0.0011 µM	0.0011 µM
CN(C)c1c(F)cc(-c2cnc(NCc3c(F)ccc4c3CCO4)n3cnnc23)c2ncnn12 [8-(5-(dimethylamino)-6-fluoro-[1,2,4]triazolo[1,5-a]pyridin-8-yl)-N-((5-fluoro-2,3-dihydrobenzofuran-4-yl)methyl)-[1,2,4]triazolo[4,3-c]pyrimidin-5-amine]	–	0.0028 µM
Cc1ccc(-c2cnc(NCc3c(F)ccc4c3CCO4)n3cnnc23)c2ncc(C#N)n12 [8-(5-(((5-fluoro-2,3-dihydrobenzofuran-4-yl)methyl)amino)-[1,2,4]triazolo[4,3-c]pyrimidin-8-yl)-5-methylimidazo[1,2-a]pyridine-3-carbonitrile]	0.003 µM	0.0052 µM
Cc1c(F)cc(-c2cnc(NCc3c(F)ccc4c3CCO4)n3cnnc23)c2ncnn12 [N-((5-fluoro-2,3-dihydrobenzofuran-4-yl)methyl)-8-(6-fluoro-5-methyl-[1,2,4]triazolo[1,5-a]pyridin-8-yl)-[1,2,4]triazolo[4,3-c]pyrimidin-5-amine]	0.0047 µM	0.0036 µM
Fc1ccc2c(c1CNc1ncc(-c3ccc(C(F)(F)F)n4ncnc34)c3nncn13)CCO2 [N-((5-fluoro-2,3-dihydrobenzofuran-4-yl)methyl)-8-(5-(trifluoromethyl)-[1,2,4]triazolo[1,5-a]pyridin-8-yl)-[1,2,4]triazolo[4,3-c]pyrimidin-5-amine]	0.036 µM	0.0069 µM
CN(C)c1ncc(-c2cnc(NCc3c(F)ccc4c3CCO4)n3cnnc23)c2ncnn12 [8-(5-(dimethylamino)-[1,2,4]triazolo[1,5-c]pyrimidin-8-yl)-N-((5-fluoro-2,3-dihydrobenzofuran-4-yl)methyl)-[1,2,4]triazolo[4,3-c]pyrimidin-5-amine]	–	0.0018 µM
Cc1ccc(-c2cnc(NCc3c(F)ccc4c3CCO4)n3cnnc23)c2ncc(CC(=O)N3CCOCC3)n12 [2-(8-(5-(((5-fluoro-2,3-dihydrobenzofuran-4-yl)methyl)amino)-[1,2,4]triazolo[4,3-c]pyrimidin-8-yl)-5-methylimidazo[1,2-a]pyridin-3-yl)-1-morpholinoethan-1-one]	0.0057 µM	0.0143 µM
Fc1ccc2c(c1CNc1ncc(-c3cccc4scnc34)c3nncn13)CCO2 [8-(benzo[d]thiazol-4-yl)-N-((5-fluoro-2,3-dihydrobenzofuran-4-yl)methyl)-[1,2,4]triazolo[4,3-c]pyrimidin-5-amine]	0.0036 µM	0.0047 µM
CP(C)(=O)c1cnc2c(-c3cnc(NCc4c(F)ccc5c4CCO5)n4cnnc34)cc(F)cn12 [(6-fluoro-8-(5-(((5-fluoro-2,3-dihydrobenzofuran-4-yl)methyl)amino)-[1,2,4]triazolo[4,3-c]pyrimidin-8-yl)imidazo[1,2-a]pyridin-3-yl)dimethylphosphine oxide]	–	0.0023 µM
N#Cc1cc(-c2cnc(NCc3c(F)ccc4c3CCO4)n3cnnc23)c2ncnn2c1 [8-(5-(((5-fluoro-2,3-dihydrobenzofuran-4-yl)methyl)amino)-[1,2,4]triazolo[4,3-c]pyrimidin-8-yl)-[1,2,4]triazolo[1,5-a]pyridine-6-carbonitrile]	–	0.0143 µM
CN(C)c1ccc(-c2cnc(NCc3c(F)ccc4c3CCO4)n3cnnc23)c2nncn12 [8-(5-(dimethylamino)-[1,2,4]triazolo[4,3-a]pyridin-8-yl)-N-((5-fluoro-2,3-dihydrobenzofuran-4-yl)methyl)-[1,2,4]triazolo[4,3-c]pyrimidin-5-amine]	–	0.0078 µM
Fc1ccc2c(c1CNc1ncc(-c3ccc(C(F)F)n4ncnc34)c3nncn13)CCO2 [8-(5-(difluoromethyl)-[1,2,4]triazolo[1,5-a]pyridin-8-yl)-N-((5-fluoro-2,3-dihydrobenzofuran-4-yl)methyl)-[1,2,4]triazolo[4,3-c]pyrimidin-5-amine]	–	0.0055 µM
CCOC(=O)c1cnc2c(-c3cnc(NCc4c(F)ccc5c4CCO5)n4cnnc34)ccc(C)n12 [Ethyl 8-(5-(((5-fluoro-2,3-dihydrobenzofuran-4-yl)methyl)amino)-[1,2,4]triazolo[4,3-c]pyrimidin-8-yl)-5-methylimidazo[1,2-a]pyridine-3-carboxylate]	0.0047 µM	–
Cc1nc2c(-c3cnc(NCc4c(F)ccc5c4CCO5)n4cnnc34)ccc(N(C)C)n2n1 [8-(5-(dimethylamino)-2-methyl-[1,2,4]triazolo[1,5-a]pyridin-8-yl)-N-((5-fluoro-2,3-dihydrobenzofuran-4-yl)methyl)-[1,2,4]triazolo[4,3-c]pyrimidin-5-amine]	–	0.0006 µM
Cc1ccc(-c2cnc(NCc3c(F)ccc4c3CCO4)n3cnnc23)c2nnc(C)n12	–	0.0008 µM
Cc1ccc(-c2cnc(NCc3c(F)ccc4c3CCO4)n3cnnc23)c2ncc(S(C)(=O)=O)n12 [N-((5-fluoro-2,3-dihydrobenzofuran-4-yl)methyl)-8-(5-methyl-3-(methylsulfonyl)imidazo[1,2-a]pyridin-8-yl)-[1,2,4]triazolo[4,3-c]pyrimidin-5-amine]	–	0.088 µM
